Results reported in ChEMBL document CHEMBL4610074, “Somuncurins: Bioactive Peptides from the Skin of the Endangered Endemic Patagonian Frog Pleurodema somuncurense” (J Nat Prod, 2020).
Calls of active or inactive are those of the source. No cut-off for these calls is given here.

Experiments:
[1] = tested on: Escherichia coli; experiment: Antibacterial activity against Escherichia coli ATCC 25922 incubated for 24 hrs under aerobic condition; assay type: functional; details: ATCC 25922, 24 h
[2] = tested on: Staphylococcus aureus; experiment: Antibacterial activity against Staphylococcus aureus ATCC 29213 incubated for 24 hrs under aerobic condition; assay type: functional; details: ATCC 29213, 24 h
[3] = tested on: Erythrocyte; experiment: (§1) Hemolytic activity in human RBC at 180 uM measured after 1 hr relative to control; assay type: ADME, cell-based; details: erythrocyte, 1 h, 180 µM
[4] = Cytotoxicity against human MDM cells after 24 hrs by resazurin dye based fluorescence assay; assay type: cell-based
[5] = tested on: Lipid bilayer; experiment: Binding affinity to Escherichia coli lipid extract large unilamellar vesicles incubated for 30 mins by laser-doppler technique
[6] = Effect on LPS-induced ROS production in human CHME3 cells measured for 30 mins by microscopic method; assay type: ADME, cell-based; details: 0.5 h
[7] = as §1; assay type: ADME, cell-based, Erythrocyte; details: red blood cells (erythrocytes), read-out: Activity
[8] = tested on: Lipid bilayer; experiment: Binding affinity to Escherichia coli lipid extract large unilamellar vesicles assessed as change in tryptophan emission Spectra incubated for 30 mins by spectrofluorometric method
[9] = tested on: Lipid bilayer; experiment: Induction of pore formation in Escherichia coli lipid extract giant unilamellar vesicles at 640 ug/ml after 25 mins by fluorescence confocal microscopy; assay type: functional
[10] = tested on: Lipid bilayer; experiment: Induction of rearrangement in Escherichia coli lipid extract large unilamellar vesicles assessed as altered colloidal property at 140 ug/ml to 640 ug/ml by dynamic light scattering analysis; assay type: functional
[11] = tested on: Lipid bilayer; experiment: Induction of lipid aggregation in Escherichia coli lipid extract large unilamellar vesicles at 270 ug/ml by dynamic light scattering analysis; assay type: functional
[12] = tested on: Lipid bilayer; experiment: Induction of lipid aggregation in PC/bovine brain SPM/cholesterol large unilamellar vesicles at 140 ug/ml to 640 ug/ml by dynamic light scattering analysis
[13] = tested on: Lipid bilayer; experiment: Induction of membrane disruption in Escherichia coli lipid extract large unilamellar vesicles assessed as carboxyfluorescein leakage at 640 ug/ml by fluorescence assay; assay type: functional
[14] = tested on: Lipid bilayer; experiment: Induction of membrane disruption in PC/bovine brain SPM/cholesterol large unilamellar vesicles assessed as carboxyfluorescein leakage at 640 ug/ml by fluorescence assay
[15] = tested on: Lipid bilayer; experiment: Induction of membrane disruption in Escherichia coli lipid extract large unilamellar vesicles assessed as carboxyfluorescein leakage at 250 ug/ml by fluorescence assay; assay type: functional

Substance | MIC [1] | MIC [2] | Activity [4] | Activity [5] [mV] | also measured
H-NLVGSLLGGILKK-NH2 | 460 µM | > 700 µg/mL | Non-Toxic | 18 | Activity [3]: Non-Toxic
H-DLLNGLLNPVLGIANGLTGGLVKK-NH2 | > 700 µg/mL | > 700 µg/mL | – | – | –
H-VSFNRAVIHSLLG-NH2 | > 700 µg/mL | > 700 µg/mL | – | – | –
H-YYQVSEERRRDLASLARLYALAR-NH2 | > 700 µg/mL | > 700 µg/mL | – | – | –
H-FILKRSYPQYY-NH2 | 410 µM | > 700 µg/mL | Non-Toxic | 23 | Activity [3]: Non-Toxic; Activity [6]: Non-Toxic
H-NNEENELRRRVSFNRAVIHSLLG-NH2 | > 700 µg/mL | > 700 µg/mL | – | – | –
H-FIIWPLRYRK-NH2 | 180 µM | 360 µM | Non-Toxic | 36 | hemolysis at 1 h, 180 µM [7]: < 5%; Activity [6]: Non-Toxic; Activity [8]: inactive; Activity [9]: inactive; Activity [10]: Active; Activity [11]: Active; Activity [12]: Non-Toxic; Activity [13]: 100%; Activity [14]: 20%; Activity [15]: Active
H-DLASLARLYALAR-NH2 | > 700 µg/mL | > 700 µg/mL | – | – | –
